Holding throughout (assay type): cell-based, human
In test [1] the test system is motor neurons induced to differentiate from iPS cells derived from SALS patients. The experiment in a line: LDH leakage ratio, sporadic ALS model (Example III-3). Conditions: final concentration 1 μM, days 35 to 40, measured on day 40, FIG. 12. The source says:
(§1) In the same manner as in Example I-1, iPS cells derived from sporadic ALS (may be referred to below as “SALS”) patients were differentiated into motor neurons. All the iPS cells used were derived from dermal fibroblasts. Below, each differentiated motor neuron is identified by the patient number from whom the neuron was derived.
(§2) In the same manner as in Example II-1, iPS cells derived from sporadic ALS (SALS) patients were induced to differentiate into motor neurons, and then ropinirole with a final concentration of 1 μM was added to the medium. More specifically, for the period of days 35 to 40 from the start of differentiation induction, ropinirole having a final concentration of 1 μM was added to the medium. In addition, a group for which ropinirole was not added to the medium was prepared as a control. In addition, for comparison, iPS cells derived from healthy subjects were differentiated into motor neurons in the same manner as in Example I-1. No ropinirole was added to the medium of these motor neurons. As the iPS cells derived from a healthy subject, the same cells as used in Example I-1 were used.
Subsequently, on day 40 from the start of differentiation induction, the LDH leakage ratio was measured for each motor neuron in the same manner as in Example I-4.
FIG. 12 is a graph showing the measurement result of the LDH leakage ratio. […]
A general note: LDH in the medium is a marker of cell lysis.

Test [2] concerns motor neurons induced to differentiate from iPS cells derived from ALS patients (TDP-43-ALS) having a mutation in TDP-43. Briefly: Neurite length, TDP-43-ALS motor neurons (screening, Example I-8). Here is the method:
For each differentiation-induced motor neuron in Example I-1, the changes over time in the neurite length were measured. A Bio station CT (Nikon Corp.) was used to measure the neurite length over time. FIG. 1 is a graph showing measurement results of changes over time in the neurite length. The vertical axis represents neurite length (relative value), and the horizontal axis represents the number of days of culturing from the start of differentiation induction.
(§3) Using the differentiation-induced motor neurons in Example I-1, drugs which cause the ALS phenotype to be restored were screened from existing drug libraries with the neurite length, ectopic localization of FUS protein, stress granule formation, LDH leakage ratio, CV-caspase 3-positive ratio, phosphorylated TDP-43 protein inclusion formation, and the like as indices.
(§4) As a result of the screening, ropinirole was found as a promising therapeutic agent for ALS. Tables 5 and 6 show the improvement ratio (%) in the ALS phenotype due to adding ropinirole to the medium. Here, ropinirole was added to the medium on days 35 to 40 from the start of the differentiation induction of each iPS cell. Here, it is assumed that days 35 to 40 from the start of differentiation induction correspond to the early stage of the ALS disease.
(§5) The improvement ratio (%) of the ALS phenotype was calculated by Equation (1).
(§6) [formula] [In Equation (1), A represents a measurement value of motor neurons induced to differentiate from iPS cells derived from ALS patients in the absence of ropinirole, and B represents a measurement value of motor neurons induced to differentiate from iPS cells derived from ALS patients in the presence of ropinirole, and C represents a measurement value of motor neurons induced to differentiate from iPS cells derived from healthy subjects in the absence of ropinirole.]
(§7) Subsequently, in the same manner as above, the efficacy in cases of administering lower concentrations of ropinirole was evaluated.
(§8) Each drug was added to the medium at a final concentration of 10 μM.

Test [3] relates to motor neurons differentiated from iPS cells derived from 24 patients having sporadic ALS (SALS). Briefly: CV caspase 3-positive ratio, 24 sporadic ALS patient models (Example III-5). Conditions: final concentration 1 μM for 5 days. As to the method: In the same manner as in Example II-1, iPS cells derived from 24 patients having sporadic ALS (SALS) were differentiated into motor neurons and then ropinirole with a final concentration of 1 μM was added to the medium. In addition, for comparison, a group for which ropinirole was not added to the medium was prepared. In addition, as a control, a group for which iPS cells derived from healthy subjects were differentiated into motor neurons in the same manner as in Example I-1 was used. No ropinirole was added to the medium of these motor neurons. As the iPS cells derived from a healthy subject, the same cells as used in Example I-1 were used.
Below, each differentiated motor neuron is identified by the patient number from whom the neuron was derived.
In all of the motor neurons, the addition period of ropinirole was 5 days. The time to start the addition of ropinirole varied depending on the case and was from day 30 to day 70 from the start of the differentiation induction of each of the iPS cells.
Subsequently, for each motor neuron on day 5 after the addition of ropinirole, the ratio of CV caspase 3-positive neurons was measured in the same manner as in Example I-3.
FIG. 15 is a graph showing the measurement results of the ratio of CV caspase 3-positive neurons. […]

Test [4] deals with motor neurons induced to differentiate from iPS cells derived from SALS patients. The experiment in a line: Neurite length, sporadic ALS model (Example III-1). The following applies: final concentration 1 μM, days 35 to 40, measured on day 40, FIG. 10.
Excerpt: as §1, §2
Subsequently, on day 40 from the start of differentiation induction, the neurite length was measured for each motor neuron in the same manner as in Example I-2.
FIG. 10 is a graph showing measurement results of the neurite length of each motor neuron. […]

Test [5] deals with motor neurons induced to differentiate from iPS cells derived from ALS patients (FUS-ALS) having a mutation in FUS. The experiment in a line: Ectopic localization of FUS protein in the cytoplasm, FUS-ALS motor neurons.
Excerpt: Therefore, on day 40 from the start of differentiation induction, each differentiation-induced motor neuron in Example I-1 was immunostained and the localization of FUS protein in the cytoplasm was examined.
as §3, §4, §5, §6, §7, §8

Where [6] appears, read: final concentration 0.1 μM, added days 35 to 40.
Setting [7] is: final concentration 1 μM, added days 35 to 40.
Where [8] appears, read: final concentration 10 μM, added days 35 to 40.

`CCCN(CCC)CCc1cccc2c1CC(=O)N2` [Ropinirole, 4-(2-di-n-propylaminoethyl)-2(3H)-indole]: the LDH leakage ratio result in test [1] is listed as “significantly decreased”. Moreover, the “Neurite length improvement ratio” value stood at 12.1% in test [2] (final concentration 0.1 nM); 49.4% in test [2] (final concentration 1 nM); 52.3% in test [2] (final concentration 10 nM); 50.4% in test [2] (setting [6]); 75.3% in test [2] (setting [7]); 77.2% in test [2] (setting [8]). Besides, the “Share of SALS cases in which the increase in CV caspase 3-positive ratio was suppressed” value in test [3] (16 of 22 cases) was 72.73 % of SALS cases. In test [3] (among 22 SALS cases with confirmed increase (of 24), FIG. 15), the “Cases in which the increase in CV caspase 3-positive ratio was suppressed” value was 16 cases. Besides, in test [4], the Neurite length reduction entry is “significantly suppressed”. Also, the “Ectopic localization of FUS protein improvement ratio” value in test [5] (final concentration 0.1 nM) came to 20.2%; in test [5] (final concentration 1 nM), 45.8%; in test [5] (final concentration 10 nM), 51.2%; in test [5] (setting [6]) it was 55.8%; in test [5] (setting [7]), 54.3%; in test [5] (setting [8]) it was 74.4%.

For the origin of these results see US12678423B2, “Therapeutic agent for amyotrophic lateral sclerosis and composition for treatment” (KEIO UNIVERSITY, priority 2016, dated 2026).
